# Test system: ABC superfamily genes in MCF-7/PAX
# Assay: Expression of genes encoding ABC transporters, qPCR
# Type: cell-based, human
# Description: Based on the fact that compounds K3, K4, K7 sensitized drug-resistant cell lines (HOC/ADR, MCF-7/PAX) and modulated ATPase activity of one from the ABC proteins (P-gp), we verified the potential of these compounds to affect ABC superfamily gene expression. The ovarian and breast cancer cell lines (parental cells and resistant sub-line) were analysed for the expression profile of genes encoding the ABC proteins in the previous works[18]–[20]. […] After 48 h, the effect of compounds alone or in the combination with cytostatics was observed (Supplementary Tables 1, Table 2).
# To determine the impact of selected compounds on the expression of genes encoding ABC transporter, HOC/ADR and MCF-7/PAX cells were seeded for 24 h into 5 cm Petri dishes with DMEM medium at the cell density 1 × 10^5 cells/mL. Afterwards, the cells were washed 1× with PBS and new fresh DMEM supplemented with K3, K4, and K7 (in concentration corresponding to their IC10 value) alone or combined with cytostatics (Adriamycin or paclitaxel in concentration corresponding to their IC25 value) was added. In the experiment, positive and negative control was also included (positive—untreated cells, negative—cells treated only with cytostatics). After 48 h exposure, the cells were washed once with PBS and released from the surface by using the above-mentioned trypsin–EDTA procedure. The enzyme reaction was stopped by medium addition and the cells were centrifuged (3200×g; 10 min, 4 °C). The supernatants were removed and before the next centrifugation, the pellets were resuspended in 1.5 mL of cooled PBS (5400×g; 10 min, 4 °C). After the second washing step, the cells were centrifuged another time (10,000×g; 3 min, 4 °C). Subsequently, 1 mL of Trizol (Invitrogen) was added to the pellets and the compounds were stored − 80 °C.
# The RNA concentration of selenoester treated samples was determined using QuantiT RiboGreen RNA Assay Kit and Infinite M200 plate reader (Tecan, Männedor, Switzerland). The cDNA was synthesized from 0.5 µg of total RNA by RevertAid First Strand Synthesis cDNA Kit (MBI Fermentas, Vilnius, Lithuania). To determine the quality of cDNA, the ubiquitin C gene fragment was amplified. The experiment was performed in 384-well block by using ViiA7 Real-Time PCR System (Life Technologies, Camarillo, California, United States). A master mix contained 0.25 µL of 20× TaqMan Gene Expression Assay, 1 µL of 5× HotFIREPol Probe qPCR Mix Plus, 1.75 µL of RNase free water and 2 µL of 8× diluted cDNA. The final reaction volume was 5 µL. The PCR parameters were as follows: initial hold (50 °C for 2 min), denaturation (95 °C for 10 min), followed by 45 cycles (denaturation at 95 °C for 15 s, annealing at 60 °C for 1 min). After each cycle, the fluorescent signal was determined. For each compound, duplicates were analysed and those with a standard deviation higher than 0.5 Ct were re-analysed. A quantitate real-time PCR was followed by MIQE guidelines. To compare the relative transcript levels of genes, the software REST 2009 (Qiagen, Hilden, Germany) was used.
# Table 2. Effect of selenoesters either on the expression of the ABC gene superfamily in paclitaxel-resistant breast cancer cell line (MCF-7/PAX).
# Gene expression of ABC transporters were estimated using comercial predesigned Taqman Gene Expression Assays (Life technologies). TaqMan Gene Expression Assays are based on 5´ nuclease chemistry, and each assay contains the primer and probe set for target of interest. Taqman assays IDs and GenBank Accession numbers of reference sequencies identifying their location and amplicon lengths are included in the Supplementary Table I. * Relative transcript levels (P-value ) in treated and non-treated cancer cell lines were compared using REST 2009 software.
structure (smiles),measurement,setting,value
CC(=O)C[Se]C(=O)c1ccccc1C(F)(F)F [K4],number of ABC genes with altered expression,,31
same,ABCA2 Expression Difference,"IC10 alone, 48 h",0.282
same,ABCA2 Treated vs. Untr.,"IC10 alone, 48 h",DOWN
same,ABCA3 Expression Difference,"IC10 alone, 48 h",0.766
same,ABCA3 Treated vs. Untr.,"IC10 alone, 48 h",DOWN
same,ABCA4 Expression Difference,"IC10 alone, 48 h",40.43
same,ABCA5 Expression Difference,"IC10 alone, 48 h",0.789
same,ABCA5 Treated vs. Untr.,"IC10 alone, 48 h",DOWN
same,ABCA7 Expression Difference,"IC10 alone, 48 h",0.757
same,ABCA7 Treated vs. Untr.,"IC10 alone, 48 h",DOWN
same,ABCA12 Expression Difference,"IC10 alone, 48 h",1.702
same,ABCB1 Expression Difference,"IC10 alone, 48 h",0.568
same,ABCB1 Treated vs. Untr.,"IC10 alone, 48 h",DOWN
same,ABCB2 Expression Difference,"IC10 alone, 48 h",0.467
same,ABCB2 Treated vs. Untr.,"IC10 alone, 48 h",DOWN
same,ABCB3 Expression Difference,"IC10 alone, 48 h",0.323
same,ABCB3 Treated vs. Untr.,"IC10 alone, 48 h",DOWN
same,ABCB6 Expression Difference,"IC10 alone, 48 h",0.524
same,ABCB6 Treated vs. Untr.,"IC10 alone, 48 h",DOWN
same,ABCB7 Expression Difference,"IC10 alone, 48 h",0.214
same,ABCB7 Treated vs. Untr.,"IC10 alone, 48 h",DOWN
same,ABCB8 Expression Difference,"IC10 alone, 48 h",0.683
same,ABCB8 Treated vs. Untr.,"IC10 alone, 48 h",DOWN
same,ABCB9 Expression Difference,"IC10 alone, 48 h",0.639
same,ABCB9 Treated vs. Untr.,"IC10 alone, 48 h",DOWN
same,ABCB10 Expression Difference,"IC10 alone, 48 h",1.163
same,ABCC1 Expression Difference,"IC10 alone, 48 h",0.398
same,ABCC1 Treated vs. Untr.,"IC10 alone, 48 h",DOWN
same,ABCC2 Expression Difference,"IC10 alone, 48 h",0.127
same,ABCC2 Treated vs. Untr.,"IC10 alone, 48 h",DOWN
same,ABCC3 Expression Difference,"IC10 alone, 48 h",26.21
same,ABCC4 Expression Difference,"IC10 alone, 48 h",0.316
same,ABCC4 Treated vs. Untr.,"IC10 alone, 48 h",DOWN
same,ABCC5 Expression Difference,"IC10 alone, 48 h",1.378
same,ABCC6 Expression Difference,"IC10 alone, 48 h",2.041
same,ABCC8 Expression Difference,"IC10 alone, 48 h",1.590
same,ABCC10 Expression Difference,"IC10 alone, 48 h",0.265
same,ABCC10 Treated vs. Untr.,"IC10 alone, 48 h",DOWN
same,ABCD1 Expression Difference,"IC10 alone, 48 h",0.179
same,ABCD1 Treated vs. Untr.,"IC10 alone, 48 h",DOWN
same,ABCD3 Expression Difference,"IC10 alone, 48 h",0.365
same,ABCD3 Treated vs. Untr.,"IC10 alone, 48 h",DOWN
same,ABCD4 Expression Difference,"IC10 alone, 48 h",1.288
same,ABCE1 Expression Difference,"IC10 alone, 48 h",0.795
same,ABCE1 Treated vs. Untr.,"IC10 alone, 48 h",DOWN
same,ABCF1 Expression Difference,"IC10 alone, 48 h",3.646
same,ABCF2 Expression Difference,"IC10 alone, 48 h",0.942
same,ABCF3 Expression Difference,"IC10 alone, 48 h",0.753
same,ABCF3 Treated vs. Untr.,"IC10 alone, 48 h",DOWN
same,ABCG1 Expression Difference,"IC10 alone, 48 h",0.325
same,ABCG1 Treated vs. Untr.,"IC10 alone, 48 h",DOWN
same,ABCG2 Expression Difference,"IC10 alone, 48 h",0.378
same,ABCG2 Treated vs. Untr.,"IC10 alone, 48 h",DOWN
same,ABCG4 Expression Difference,"IC10 alone, 48 h",0.412
same,ABCG4 Treated vs. Untr.,"IC10 alone, 48 h",DOWN
same,decrease of expression of ABCB1 (P-gp) encoding gene,"IC10 alone, 48 h",43%
same,downregulation of expression of ABCC1 (MRP1),"IC10 alone, 48 h",60%
same,downregulation of expression of ABCG2,"IC10 alone, 48 h",62%

# Source: article PMC9023544, “Ketone-selenoesters as potential anticancer and multidrug resistance modulation agents in 2D and 3D ovarian and breast cancer in vitro models” (Scientific Reports, 2022)
